Counter-ions that a name gives are not always drawn. Like-named read-outs stand apart in the source and are kept apart here.

Test [1] deals with T1, serotonin receptor 5-HT1B (Rattus norvegicus, UniProt P28564).
T1 construct: membrane species are prepared from rat brains (Wistar) by homogenization of species of rat brain-cortices; from tissue; host or cells: rat (Wistar) brain cortex
The experiment in a line: Radioligand binding to serotonin receptor 5-HT1B ([125I] cyanopindolol, rat brain cortex membranes). Conditions: for 5-HT1B % inhibition: 10 µM ligand; for inhibition at 10 µM: read-out: 5-HT1B % inhibition. The text has this: Serotonin is used as positive control.

The next test has as its target T2, human 5-HT7 receptor (Homo sapiens, UniProt P34969).
T2 construct: expressed in transfected cells; host or cells: CHO
The experiment in a line: Radioligand binding to serotonin receptor 5-HT7 ([3H] Lysergic acid diethylamide, CHO membranes). Conditions: for 5-HT7 % inhibition: 10 µM ligand; for inhibition at 10 µM: read-out: 5-HT7 % inhibition. The source says: For this purpose sDNA of human 5-HT7 receptor is expressed in CHO cells as it was described in [Shen Y, Monsma FJ Jr, Metcalf MA, Jose PA, Hamblin MW, and Sibley DR. […] J. Biol. Chem. 1993, 268, 18200 - 18204]. […] J. Pharmacol. Exp. Ther. 1994, 268:1403-1410]. […] Methiothepin is used as positive control.

A further test has as its target T3, recombinant human 5-HT1A (Homo sapiens, UniProt P08908).
T3 construct: expressed in transfected cells; host or cells: CHO
T3 sequence (P08908 1-422): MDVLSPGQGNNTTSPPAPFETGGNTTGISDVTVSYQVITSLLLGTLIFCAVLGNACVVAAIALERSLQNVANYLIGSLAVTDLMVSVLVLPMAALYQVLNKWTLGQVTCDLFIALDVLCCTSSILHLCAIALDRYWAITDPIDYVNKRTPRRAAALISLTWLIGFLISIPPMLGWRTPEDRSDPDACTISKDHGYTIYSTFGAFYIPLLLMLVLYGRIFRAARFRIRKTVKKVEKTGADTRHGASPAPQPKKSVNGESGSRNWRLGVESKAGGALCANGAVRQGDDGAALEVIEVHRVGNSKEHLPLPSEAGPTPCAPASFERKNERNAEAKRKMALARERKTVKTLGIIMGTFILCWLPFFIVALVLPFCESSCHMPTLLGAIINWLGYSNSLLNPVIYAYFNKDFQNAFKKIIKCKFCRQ
The experiment in a line: Radioligand binding to serotonin receptor 5-HT1A ([3H] 8-OH-DPAT, CHO membranes). Conditions: for 5-HT1A % inhibition: 10 µM ligand; for inhibition at 10 µM: read-out: 5-HT1A % inhibition. The source says: J Pharmacol Exp Ther. 306(1): 301-309, 2003]. […] Metergoline is used as positive control.

Test [2] addresses T4, recombinant human 5-HT6 receptor (Homo sapiens, UniProt P50406).
T4 construct: expressed in transfected cells; host or cells: HeLa
The experiment in a line: Radioligand binding to serotonin receptor 5-HT6 ([3H] Lysergic acid diethylamide, HeLa membranes). The note with it: for 5-HT6 % inhibition: 10 µM ligand. The source says: Mol Pharmacol. 43:320-327, 1993]. […] Methiothepin is used as positive control.

Test [3] has as its target T5, recombinant human 5-HT2A receptor (Homo sapiens, UniProt P28223).
T5 construct: expressed in transfected cells; host or cells: CHO-K1
The experiment in a line: Radioligand binding to serotonin receptor 5-HT2A ([3H] Ketanserin, CHO-K1 membranes). Conditions: 10 µM ligand. The text has this: 9-C. […] J Neurochem. […] Ketanserin is used as positive control.

In test [4] the target is T6, recombinant human 5-HT2B receptor (Homo sapiens, UniProt P41595).
T6 construct: expressed in transfected cells; host or cells: CHO-K1
The experiment in a line: Radioligand binding to serotonin receptor 5-HT2B ([3H] Lysergic acid diethylamide, CHO-K1 membranes).
Method: For this purpose membrane species are prepared from CHO-K1 cells comprising recombinant human 5-HT2B receptor by homogenization of recombinant cells in glass homogenizer with the subsequent separation of plasmatic membranes from cell nuclei, mitochondrias and cell wreckages by differential centrifugation. […] After incubation the samples are filtered in vacuo on glass-microfiber filters G/F (Millipor, USA), filters are washed three times with cold solution of medium and radioactivity is measured by scintillation counter MicroBeta 340 (Perkin Elmer, USA). […] Ketanserin is used as positive control. The tested compounds' binding to the receptor is determined by their ability to displace the radioligand and is expressed in percent of displacement (%I). Values of %I are calculated according to the following equation: %I = (TA-CA)/(TA-NA)*100, [formula] wherein: TA - is the overall radioactivity in the presence of radioligand only, CA - is the radioactivity in the presence of radioligand and tested compound and NA - is the radioactivity in the presence of radioligand and Serotonin (10 µM).

Test [5] addresses T7, recombinant human 5-HT2C receptor (Homo sapiens, UniProt P28335).
T7 construct: expressed in transfected cells; host or cells: CHO-K1
T7 sequence (P28335 33-458): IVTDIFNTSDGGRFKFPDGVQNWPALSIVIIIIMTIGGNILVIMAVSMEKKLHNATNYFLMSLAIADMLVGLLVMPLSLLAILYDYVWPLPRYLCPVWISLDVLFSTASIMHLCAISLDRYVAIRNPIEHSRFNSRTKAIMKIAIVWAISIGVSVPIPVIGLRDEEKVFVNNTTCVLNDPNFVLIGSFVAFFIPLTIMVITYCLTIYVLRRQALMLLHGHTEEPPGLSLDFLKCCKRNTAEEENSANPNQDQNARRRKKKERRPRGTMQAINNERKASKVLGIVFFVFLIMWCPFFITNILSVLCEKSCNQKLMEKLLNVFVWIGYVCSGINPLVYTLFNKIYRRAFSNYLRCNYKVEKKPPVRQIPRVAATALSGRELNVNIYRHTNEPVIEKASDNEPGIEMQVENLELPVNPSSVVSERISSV
The experiment in a line: Radioligand binding to serotonin receptor 5-HT2C ([3H] Mesulergine, CHO-K1 membranes). The text has this:
J Neurochem. 69: 1449 - 1458, 1997]. […] SB242084 is used as positive control.

Setting [6] is: read-out: 5-HT2B % inhibition, 10 µM ligand.

T4 sequence (P50406 whole entry): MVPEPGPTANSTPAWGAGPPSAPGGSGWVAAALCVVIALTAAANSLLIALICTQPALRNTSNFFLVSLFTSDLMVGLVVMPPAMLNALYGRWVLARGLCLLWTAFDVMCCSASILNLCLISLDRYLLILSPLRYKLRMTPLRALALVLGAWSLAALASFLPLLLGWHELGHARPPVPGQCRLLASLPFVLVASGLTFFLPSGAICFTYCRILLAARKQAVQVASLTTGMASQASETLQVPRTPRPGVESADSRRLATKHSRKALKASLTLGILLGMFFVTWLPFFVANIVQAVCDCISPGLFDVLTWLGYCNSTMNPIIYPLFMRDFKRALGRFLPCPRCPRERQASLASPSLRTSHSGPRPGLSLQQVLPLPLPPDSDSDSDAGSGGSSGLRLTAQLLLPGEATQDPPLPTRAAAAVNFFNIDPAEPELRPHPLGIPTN
T6 sequence (P41595 whole entry): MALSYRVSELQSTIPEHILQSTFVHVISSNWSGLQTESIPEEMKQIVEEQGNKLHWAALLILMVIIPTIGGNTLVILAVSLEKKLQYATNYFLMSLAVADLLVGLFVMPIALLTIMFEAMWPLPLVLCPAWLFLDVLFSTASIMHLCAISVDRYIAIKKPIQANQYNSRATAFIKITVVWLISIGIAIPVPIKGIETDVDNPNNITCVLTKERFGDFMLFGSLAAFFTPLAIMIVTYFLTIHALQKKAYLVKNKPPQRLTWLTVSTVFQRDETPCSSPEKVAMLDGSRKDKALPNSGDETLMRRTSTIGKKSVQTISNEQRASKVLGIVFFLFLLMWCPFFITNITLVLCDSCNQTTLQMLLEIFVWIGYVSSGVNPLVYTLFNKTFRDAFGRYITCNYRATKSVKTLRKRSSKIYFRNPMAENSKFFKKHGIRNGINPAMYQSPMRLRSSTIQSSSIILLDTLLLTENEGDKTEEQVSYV
T1 sequence (P28564 whole entry): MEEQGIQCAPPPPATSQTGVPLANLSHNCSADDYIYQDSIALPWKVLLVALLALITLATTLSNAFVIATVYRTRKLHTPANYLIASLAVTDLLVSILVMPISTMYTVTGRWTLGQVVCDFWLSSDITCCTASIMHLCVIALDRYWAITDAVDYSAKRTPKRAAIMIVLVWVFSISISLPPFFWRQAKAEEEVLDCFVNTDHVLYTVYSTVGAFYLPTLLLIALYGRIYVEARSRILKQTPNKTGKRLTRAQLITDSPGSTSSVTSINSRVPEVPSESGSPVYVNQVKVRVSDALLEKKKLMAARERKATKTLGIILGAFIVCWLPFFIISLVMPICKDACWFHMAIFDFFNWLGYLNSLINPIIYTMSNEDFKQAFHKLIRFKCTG
T2 sequence (P34969 whole entry): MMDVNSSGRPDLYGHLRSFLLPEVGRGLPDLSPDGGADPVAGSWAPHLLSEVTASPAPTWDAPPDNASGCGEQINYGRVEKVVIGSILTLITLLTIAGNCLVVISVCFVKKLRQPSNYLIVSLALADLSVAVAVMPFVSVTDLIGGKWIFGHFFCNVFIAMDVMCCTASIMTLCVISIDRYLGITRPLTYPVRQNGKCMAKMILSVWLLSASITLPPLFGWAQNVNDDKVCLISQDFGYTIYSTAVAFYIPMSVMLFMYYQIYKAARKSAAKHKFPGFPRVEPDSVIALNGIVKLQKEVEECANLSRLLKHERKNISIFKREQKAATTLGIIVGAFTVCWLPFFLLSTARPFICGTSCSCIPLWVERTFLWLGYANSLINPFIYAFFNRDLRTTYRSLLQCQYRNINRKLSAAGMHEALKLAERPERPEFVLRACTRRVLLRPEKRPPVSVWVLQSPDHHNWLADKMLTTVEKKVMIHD
T5 sequence (P28223 whole entry): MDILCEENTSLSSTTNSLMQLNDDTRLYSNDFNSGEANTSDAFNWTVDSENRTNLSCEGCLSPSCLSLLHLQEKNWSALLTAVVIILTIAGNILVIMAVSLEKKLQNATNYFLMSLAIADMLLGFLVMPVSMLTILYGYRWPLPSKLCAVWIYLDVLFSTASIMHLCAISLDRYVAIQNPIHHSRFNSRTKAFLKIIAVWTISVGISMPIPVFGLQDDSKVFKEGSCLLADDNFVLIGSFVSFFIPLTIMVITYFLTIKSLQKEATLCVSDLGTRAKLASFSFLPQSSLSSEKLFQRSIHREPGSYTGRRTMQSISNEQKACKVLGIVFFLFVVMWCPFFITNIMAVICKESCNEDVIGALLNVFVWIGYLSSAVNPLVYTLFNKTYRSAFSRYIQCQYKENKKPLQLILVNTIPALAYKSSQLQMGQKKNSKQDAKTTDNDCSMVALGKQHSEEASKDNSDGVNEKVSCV

With `CN1CCc2c(c3cc(F)ccc3n2C#Cc2ccccc2)C1` [1.1(2)], the 5-HT1B % inhibition in test [1] amounted to 6%. This molecule displayed a 5-HT7 % inhibition on human 5-HT7 receptor of 59%. For the same molecule, the 5-HT1A % inhibition at recombinant human 5-HT1A was 30%. The 5-HT6 % inhibition in test [2] was 95%. For the same molecule, the 5-HT2A % inhibition in test [3] is listed as 99%.
In test [1], `Cc1ccc2c(c1)c1c(n2C#Cc2ccccc2)CCN(C)C1` [1.1(4)] registered a 5-HT1B % inhibition of 26%. The 5-HT2B % inhibition in test [4] (10 µM ligand) worked out at 86%. In addition, on human 5-HT7 receptor, the 5-HT7 % inhibition was determined as 93%. Further, in test [5] (10 µM ligand), the 5-HT2C % inhibition stood at 99%. For the same molecule, on recombinant human 5-HT1A, the 5-HT1A % inhibition came out at 38%. The 5-HT6 % inhibition in test [2] worked out at 97%. Also, the 5-HT2A % inhibition in test [3] was found to be 99%.
`CN1CCc2c(c3cc(C(F)(F)F)ccc3n2CCc2ccccc2)C1` [1.1.2(1-7)·HCl, 2-methyl-8-trifluoromethyl-5-phenethyl-1,2,3,4-tetrahydro-1H-pyrido[4,3-b]indole]: the inhibition (as a rule, the drop in the measured response relative to a control, in per cent) at 10 µM in test [1] is 13%; in test [4] (read-out: 5-HT2B % inhibition), 89%; at human 5-HT7 receptor, 94%; in test [5] (read-out: 5-HT2C % inhibition), 92%; in test [3] it was 91%.
`CN1CCc2c(c3cc(F)ccc3n2CC(O)c2ccccc2)C1` (stereo not shown) [1.1.2(1-9)]: in test [1], the 5-HT1B % inhibition is 5%. At human 5-HT7 receptor, this molecule showed a 5-HT7 % inhibition of 84%. The 5-HT1A % inhibition at recombinant human 5-HT1A is given as -2%. Besides, the 5-HT6 % inhibition in test [2] is 89%. Also, the 5-HT2A % inhibition in test [3] turned out to be 97%.
For the molecule `Cc1ccc2c(c1)c1c(n2CC(O)c2ccccc2)CCN(C)C1` (stereo not shown) [1.1.2(1-10), 2,8-dimethyl-5-[(2-phenyl-2-hydroxy)ethyl]-1,2,3,4-tetrahydro-1H-pyrido[4,3-b]indole], the 5-HT1B % inhibition in test [1] was 41%. This molecule displayed a 5-HT7 % inhibition at human 5-HT7 receptor of 96%. In addition, the 5-HT1A % inhibition on recombinant human 5-HT1A stood at 24%. For the same molecule, the 5-HT6 % inhibition in test [2] amounted to 102%. In test [3], the 5-HT2A % inhibition was 97%.
Regarding `COc1ccc(CCn2c3c(c4cc(C)ccc42)CN(C)CC3)cc1` [1.1.2(1-14)·HCl], the inhibition at 10 µM in test [1] stood at 52%; in test [4] (read-out: 5-HT2B % inhibition), 97%; on human 5-HT7 receptor, 100%; in test [5] (read-out: 5-HT2C % inhibition), 97%; at recombinant human 5-HT1A it was 57%; in test [2] (read-out: 5-HT6 % inhibition), 108%.
`Cc1ccc2c(c1)c1c(n2CCc2ccc(F)cc2)CCN(C)C1` [1.1.2(1-16)·HCl]: the inhibition at 10 µM in test [1] was 36%; in test [4] (read-out: 5-HT2B % inhibition), 91%; on human 5-HT7 receptor it was 95%; in test [5] (read-out: 5-HT2C % inhibition), 99%; on recombinant human 5-HT1A it was 37%; in test [2] (read-out: 5-HT6 % inhibition), 103%. In addition, in test [3], the inhibition at 10 µM came to 99%.
Take `Cc1ccc2c(c1)c1c(n2CCc2ccc(C(F)(F)F)cc2)CCN(C)C1` [1.1.2(1-18)·HCl]: the inhibition at 10 µM in test [1] amounted to 45%; in test [4] (setting [6]) it was 87%; at human 5-HT7 receptor, 103%; in test [5] (read-out: 5-HT2C % inhibition), 99%; on recombinant human 5-HT1A, 53%; in test [2] (read-out: 5-HT6 % inhibition), 94%. The inhibition at 10 µM in test [3] came out at 100%.
Take `Cc1ccc2c(c1)c1c(n2CCc2ccccc2)CCCN(C)C1` [1.2.2(1-2)·HCl]: the inhibition at 10 µM worked out at 84% in test [4] (setting [6]), 97% at human 5-HT7 receptor, 20% at recombinant human 5-HT1A and 89% in test [3].
For the molecule `Cc1ccc(CCn2c3c(c4cc(F)ccc42)CN(C)CCC3)cn1` [1.2.2(4-2)·2HCl], in test [1], the inhibition at 10 µM was 60%. In addition, the inhibition at 1 µM in test [5] (read-out: 5-HT2C % inhibition) is 78%; in test [2] (read-out: 5-HT6 % inhibition), 84%.
In the case of `Cc1ccc2c(c1)c1c(n2CCCc2ccccc2)CCN(C)C1` [1.3.3(2)·HCl], the inhibition at 10 µM amounted to 31% in test [1]; 95% in test [4] (read-out: 5-HT2B % inhibition); 98% in test [5] (read-out: 5-HT2C % inhibition); 103% in test [2] (read-out: 5-HT6 % inhibition); 99% in test [3].
For the molecule `CN1CCc2c(c3cc(F)ccc3n2CCCc2ccccc2)C1` [1.3.3(8)·HCl], the inhibition at 10 µM in test [1] is 12%; in test [4] (read-out: 5-HT2B % inhibition) it was 96%; at human 5-HT7 receptor it was 83%; in test [5] (read-out: 5-HT2C % inhibition) it was 97%; at recombinant human 5-HT1A it was -4%; in test [2] (read-out: 5-HT6 % inhibition), 93%. Also, the inhibition at 10 µM in test [3] came out at 97%.
As for `CN1CCc2c(c3cc(F)ccc3n2Cc2ccccc2)C1` [1.9(3)·HCl], the inhibition at 10 µM amounted to 12% in test [1]; 95% in test [4] (read-out: 5-HT2B % inhibition); 81% at human 5-HT7 receptor; 100% in test [5] (read-out: 5-HT2C % inhibition); 89% in test [2] (read-out: 5-HT6 % inhibition); 97% in test [3].
Take `Cc1ccc2c(c1)c1c(n2Cc2ccccc2)CCCN(C)C1` [1.10(4)·HCl]: the inhibition at 10 µM in test [1] was 31%; in test [4] (read-out: 5-HT2B % inhibition) it was 70%; on human 5-HT7 receptor, 75%; in test [5] (read-out: 5-HT2C % inhibition), 98%; at recombinant human 5-HT1A it was 19%; in test [2] (read-out: 5-HT6 % inhibition) it was 69%. In test [3], the inhibition at 10 µM worked out at 91%.
